Patent US20240279202A1 (NURIX THERAPEUTICS, INC., priority 2021, published 2024)
Read-outs that look alike come from different tables or passages of the source.

Assay: Mouse PK analysis (blood/plasma concentration after oral administration)
Format: in vivo
Details: mice
Summary of the method: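 Mice were dosed by oral gavage at 90 mg/kg with blood sampled at 1, 2 and 6 h; a second study used oral dosing with plasma taken at 6 or 24 h. Plasma levels were measured by LC/MS/MS (acetonitrile precipitation, internal-standard curve, positive ESI MRM), and Cmax, Tmax and AUClast were derived by noncompartmental analysis.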

| SMILES | AUC(0-t) (mouse, oral, plasma) | Cmax (mouse, oral, plasma) | Tmax (mouse, oral, plasma) | other results |
| --- | --- | --- | --- | --- |
| C[C@@H](C(=O)N(C)c1ccc2cc(-c3n[nH]c4c3CCC(C)(C)C4)[nH]c2c1)N1CCN(C[C@H]2CCN(c3ccc4c(c3)CN(C3CCC(=O)NC3=O)C4=O)C2)CC1 (stereo partly drawn) [Compound 12, (2S)—N-(2-(6,6-dimethyl-4,5,6,7-tetrahydro-1H-indazol-3-yl)-1H-indol-6-yl)-2-(4-(((3R)-1-(2-(2,6-dioxopiperidin-3-yl)-1-oxoisoindolin-5-yl)pyrrolidin-3-yl)methyl)piperazin-1-yl)-N-methylpropanamide] | 0.198 µM·h | 80.3 nM | 1 h |  |
| C[C@@H](C(=O)N(C)c1ccc2cc(-c3n[nH]c4c3CCC(C)(C)C4)[nH]c2c1)N1CCN(C(=O)C2CN(C3CCN(c4ccc5c(c4)C(=O)N(C4CCC(=O)NC4=O)C5=O)CC3)C2)CC1 (stereo partly drawn) [Compound 34, (2S)—N-(2-(6,6-dimethyl-4,5,6,7-tetrahydro-1H-indazol-3-yl)-1H-indol-6-yl)-2-(4-(1-(1-(2-(2,6-dioxopiperidin-3-yl)-1,3-dioxoisoindolin-5-yl)piperidin-4-yl)azetidine-3-carbonyl)piperazin-1-yl)-N-methylpropanamide] |  |  |  | Cal. Conc. Total (μM) 2 h (2 h): BQL; Cal. Conc. Total (μM) 6 h (6 h): BQL |
| C[C@@H](C(=O)N(C)c1ccc2cc(-c3n[nH]c4c3C[C@@H]3C(F)(F)[C@]3(C)C4)[nH]c2c1)N1CCN(CC2CCN(c3ccc(C(=O)NC4CCC(=O)NC4=O)nc3)CC2)CC1 (stereo partly drawn) [Compound 66, 5-(4-((4-((S)-1-((2-((4aS,5aR)-5,5-difluoro-5a-methyl-1,4,4a,5,5a,6-hexahydrocyclopropa[f]indazol-3-yl)-1H-indol-6-yl)(methyl)amino)-1-oxopropan-2-yl)piperazin-1-yl)methyl)piperidin-1-yl)-N-(2,6-dioxopiperidin-3-yl)picolinamide] | 1.74 µM·h | 526 nM | 4 h |  |
| C[C@@]12Cc3[nH]nc(C(=O)Nc4cnn(CC5CN(C[C@H]6CCN(c7ccc8c(c7)C(=O)N(C7CCC(=O)NC7=O)C8=O)C6)C5)c4)c3C[C@@H]1C2(F)F (stereo partly drawn) [Compound 44, (4aS,5aR)-N-(1-((1-(((3R)-1-(2-(2,6-dioxopiperidin-3-yl)-1,3-dioxoisoindolin-5-yl)pyrrolidin-3-yl)methyl)azetidin-3-yl)methyl)-1H-pyrazol-4-yl)-5,5-difluoro-5a-methyl-1,4,4a,5,5a,6-hexahydrocyclopropa[f]indazole-3-carboxamide] |  | 27 nM | 2 h |  |
| CN(C(=O)C1CN(C2CCN(c3ccc4c(c3)C(=O)N(C3CCC(=O)NC3=O)C4=O)CC2)C1)c1ccc2cc(-c3n[nH]c4c3CCC(C)(C)C4)[nH]c2c1 (stereo not drawn) [Compound 35, N-(2-(6,6-dimethyl-4,5,6,7-tetrahydro-1H-indazol-3-yl)-1H-indol-6-yl)-1-(1-(2-(2,6-dioxopiperidin-3-yl)-1,3-dioxoisoindolin-5-yl)piperidin-4-yl)-N-methylazetidine-3-carboxamide] |  |  |  | concentration at 2 h (mouse, plasma, oral, 90 mg/kg, 2 h, read-out: Cal. Conc. Total (μM) 2 h): 0.155 µM; concentration at 6 h (mouse, plasma, oral, 90 mg/kg, 6 h, read-out: Cal. Conc. Total (μM) 6 h): 0.053 µM |
| C[C@@H](C(=O)N(C)c1ccc2cc(-c3n[nH]c4c3CCC(C)(C)C4)[nH]c2c1)N1CCN(CC2CCN(c3cccc4c3n(C)c(=O)n4C3CCC(=O)NC3=O)CC2)CC1 (stereo partly drawn) [Compound 3, (2S)—N-(2-(6,6-dimethyl-4,5,6,7-tetrahydro-1H-indazol-3-yl)-1H-indol-6-yl)-2-(4-((1-(1-(2,6-dioxopiperidin-3-yl)-3-methyl-2-oxo-2,3-dihydro-1H-benzo[d]imidazol-4-yl)piperidin-4-yl)methyl)piperazin-1-yl)-N-methylpropanamide] | 1.99 µM·h | 471 nM | 4 h | concentration at 1 h (mouse, 90 mg/kg PO, blood, timepoint 1 h, read-out: Concentration (μM), mean calculated): 0.228 µM; concentration at 2 h (mouse, 90 mg/kg PO, blood, timepoint 2 h, read-out: Concentration (μM), mean calculated): 0.702 µM; concentration at 6 h (mouse, 90 mg/kg PO, blood, timepoint 6 h, read-out: Concentration (μM), mean calculated): 2.71 µM |
| C[C@@H](C(=O)N(C)c1ccc2cc(-c3n[nH]c4c3C[C@@H]3C(F)(F)[C@]3(C)C4)[nH]c2c1)N1CCN(C[C@H]2CCN(c3ccc4c(c3)C(=O)N(C3CCC(=O)NC3=O)C4=O)C2)CC1 (stereo partly drawn) [Compound 9, (2S)—N-(2-((4aS,5aR)-5,5-difluoro-5a-methyl-1,4,4a,5,5a,6-hexahydrocyclopropa[f]indazol-3-yl)-1H-indol-6-yl)-2-(4-(((3R)-1-(2-(2,6-dioxopiperidin-3-yl)-1,3-dioxoisoindolin-5-yl)pyrrolidin-3-yl)methyl)piperazin-1-yl)-N-methylpropanamide] | 0.154 µM·h | 46 nM | 6 h |  |
| C[C@@H](C(=O)N(C)c1ccc2cc(-c3n[nH]c4c3CCC(C)(C)C4)[nH]c2c1)N1CCN(C[C@H]2CCN(c3ccc4c(c3)n(C)c(=O)n4C3CCC(=O)NC3=O)C2)CC1 (stereo partly drawn) [Compound 5, (2S)—N-(2-(6,6-dimethyl-4,5,6,7-tetrahydro-1H-indazol-3-yl)-1H-indol-6-yl)-2-(4-(((3R)-1-(1-(2,6-dioxopiperidin-3-yl)-3-methyl-2-oxo-2,3-dihydro-1H-benzo[d]imidazol-5-yl)pyrrolidin-3-yl)methyl)piperazin-1-yl)-N-methylpropanamide] | 0.7 µM·h | 188 nM | 4 h |  |
